What follows are compounds tested against T1, squalene synthase (Rattus norvegicus, UniProt Q02769) (assay: Inhibition of squalene synthase ([14C]squalene production from [2-14C]farnesylpyrophosphate)). Conditions: not given.
T1 construct: from tissue; host or cells: rat liver homogenate
T1 sequence (Q02769 1-416): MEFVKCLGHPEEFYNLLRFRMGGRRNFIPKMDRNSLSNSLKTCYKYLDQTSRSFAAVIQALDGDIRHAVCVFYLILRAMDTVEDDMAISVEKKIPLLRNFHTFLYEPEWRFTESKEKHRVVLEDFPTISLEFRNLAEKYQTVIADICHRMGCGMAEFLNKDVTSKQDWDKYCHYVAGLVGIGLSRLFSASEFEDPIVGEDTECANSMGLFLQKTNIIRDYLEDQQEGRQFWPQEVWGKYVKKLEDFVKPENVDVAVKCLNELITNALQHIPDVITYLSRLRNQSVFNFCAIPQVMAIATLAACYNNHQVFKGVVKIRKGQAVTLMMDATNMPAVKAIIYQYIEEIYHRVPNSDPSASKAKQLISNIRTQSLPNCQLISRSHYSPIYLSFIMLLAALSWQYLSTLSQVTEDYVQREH
Assay type: biochemical
Description: A. Biller et al. in J. […] [¹⁴C]squalene is separated from unreacted substrate on thin layer chromatography plates and determined by liquid scintillation counting. […] Acta, Volume 877, 50-60 (1986) and modified to include measurement of cholesterol by high performance liquid chromatography (h.p.l.c.). […] A. […] [¹⁴C] Squalene was separated from unreacted substrate on thin layer chromatography plates and determined by liquid scintillation counting. Inhibition of squalene synthase was quantified by incubating rat liver homogenate with various concentrations of the test compound in the presence of [2-¹⁴C] farnesylpyrophosphate. The concentration of compound giving 50% inhibition of [¹⁴C] squalene production in a 30 minute assay was taken as the IC₅₀ value.

SMILES | IC50 [nM]
CCC(C)CC(C)CCC(=O)OC1C(O)C2(CCC(C)=CC(C)Cc3ccccc3)OC(C(=O)O)C(O)(C(=O)O)C1(C(=O)O)O2 (mixture of isomers) [Example 15, [1S-[1α[(Z/E),5S*],3α,4β,5α,6α(4S*6R*),7β]] 1-(3,5-Dimethyl-6-phenyl-3-hexenyl)-4,6,7-trihydroxy-2,8-dioxabicyclo[3.2.1]octane-3,4,5-tricarboxylic acid, 6-(4,6-dimethyloctanoate)] | < 100
CC[C@H](C)C[C@H](C)/C=C/C(=O)O[C@@H]1[C@@H](O)[C@@]2(C/C=C(\C)C(=O)[C@H](C)Cc3ccccc3)O[C@H](C(=O)O)[C@@](O)(C(=O)O)[C@]1(C(=O)O)O2 (relative stereo) [Example 2, [1S-[1α[(E),5S*],3α,4β,5α,6α(2E,4R*,6R*),7β]] 1-(3,5-Dimethyl-4-oxo-6-phenyl-2-hexenyl)-4,6,7-trihydroxy-2,8-dioxabicyclo[3.2.1]octane-3,4,5-tricarboxylic acid, 6-(4,6-dimethyl-2-octenoate)] | < 100
CC[C@H](C)C[C@H](C)/C=C/C(=O)O[C@@H]1[C@@H](O)[C@@]2(C/C=C(\C)[C@@H](O)[C@H](C)Cc3ccccc3)O[C@H](C(=O)O)[C@@](O)(C(=O)O)[C@]1(C(=O)O)O2 (relative stereo) [Example 5, [1S-[1α[(E),4R*,5S*],3α,4β,5α,6α(2E,4R*,6R*),7β]] 1-(4-Hydroxy-3,5-dimethyl-6-phenyl-2-hexenyl)-4,6,7-trihydroxy-2,8-dioxabicyclo[3.2.1]octane-3,4,5-tricarboxylic acid, 6-(4,6-dimethyl-2-octenoate)] | < 100
CC[C@H](C)C[C@H](C)/C=C/C(=O)O[C@@H]1[C@@H](O)[C@@]2(C/C=C(\C)C[C@H](C)Cc3ccccc3)O[C@H](C(=O)O)[C@@](O)(C(=O)O)[C@]1(C(=O)O)O2 (relative stereo) [Example 9, [1S-[1α[(E),5R*],3α,4β,5α,6α(2E,4R*,6R*),7β]] 1-(3,5-Dimethyl-6-phenyl-2-hexenyl)-4,6,7-trihydroxy-2,8-dioxabicyclo[3.2.1]octane-3,4,5-tricarboxylic acid, 6-(4,6-dimethyl-2-octenoate)] | < 100
CCC(CC[C@]12O[C@H](C(=O)O)[C@@](O)(C(=O)O)[C@](C(=O)O)(O1)[C@H](OC(=O)/C=C/[C@@H](C)C[C@@H](C)CC)[C@H]2O)C(=O)[C@H](C)Cc1ccccc1 (relative stereo) [Example 10, [1S-[1α(3R*S*,5S*),3α,4β,5α,6α(2E,4R*,6R*),7β]] 1-(3-Ethyl-5-methyl-4-oxo-6-phenylhexyl)-4,6,7-trihydroxy-2,8-dioxabicyclo[3.2.1]octane-3,4,5-tricarboxylic acid, 6-(4,6-dimethyl-2-octenoate)] | < 100
CC[C@H](C)C[C@H](C)CCC(=O)O[C@@H]1[C@@H](O)[C@@]2(C/C=C(\C)[C@@H](O)[C@H](C)Cc3ccccc3)O[C@H](C(=O)O)[C@@](O)(C(=O)O)[C@]1(C(=O)O)O2 (relative stereo) [Example 14, [1S-[1α[(E),4R*,5S*],3α,4β,5α,6α(4S*,6R*),7β]] 1-(3,5-Dimethyl-4-hydroxy-6-phenyl-2-hexenyl)-4,6,7-trihydroxy-2,8-dioxabicyclo[3.2.1]octane-3,4,5-tricarboxylic acid, 6-(4,6-dimethyloctanoate)] | < 100
C=C(CC[C@]12O[C@H](C(=O)O)[C@@](O)(C(=O)O)[C@](C(=O)O)(O1)[C@H](OC(=O)C1CCCCC1)[C@H]2O)[C@@H](OC(C)=O)[C@H](C)Cc1ccccc1 (relative stereo) [Example 43, [1S-[1α(4R*,5S*),3α,4β,5α,6α,7β]] 1-(4-Acetyloxy-5-methyl-3-methylene-6-phenylhexyl)-4,6,7-trihydroxy-2,8-dioxabicyclo[3.2.1]octane-3,4,5-tricarboxylic acid, 6-(cyclohexanecarboxylate)] | < 100
C=C(CC[C@]12O[C@H](C(=O)O)[C@@](O)(C(=O)O)[C@](C(=O)O)(O1)[C@H](OC(=O)c1ccccc1)[C@H]2O)[C@@H](OC(C)=O)[C@H](C)Cc1ccccc1 (relative stereo) [Example 47, [1S-[4α(4R*,5S*),3α,4β,5α,6α,7β]] 1-(4-Acetyloxy-5-methyl-3-methylene-6-phenylhexyl)-4,6,7-trihydroxy-2,8-dioxabicyclo[3.2.1]octane-3,4,5-tricarboxylic acid, 6-benzoate] | < 100
C=C(CC[C@]12O[C@H](C(=O)O)[C@@](O)(C(=O)O)[C@](C(=O)O)(O1)[C@H](OC(=O)/C=C/c1ccccc1)[C@H]2O)[C@@H](OC(C)=O)[C@H](C)Cc1ccccc1 (relative stereo) [Example 49, [1S-[1α(4R*,5S*),3α,4β,5α,6α(2E),7β]] 1-(4-Acetyloxy-5-methyl-3-methylene-6-phenylhexyl)-4,6,7-trihydroxy-2,8-dioxabicyclo[3.2.1]octane-3,4,5-tricarboxylic acid, 6-(3-phenyl-2-propenoate)] | < 100
C=C(CC[C@]12O[C@H](C(=O)O)[C@@](O)(C(=O)O)[C@](C(=O)O)(O1)[C@H](OC(=O)CCCC(C)=O)[C@H]2O)[C@@H](OC(C)=O)[C@H](C)Cc1ccccc1 (relative stereo) [Example 51, [1S-[1α(4R*,5S*),3α,4β,5α,6α,7β]] 1-(4-Acetyloxy-5-methyl-3-methylene-6-phenylhexyl)-4,6,7-trihydroxy-2,8-dioxabicyclo[3.2.1]octane-3,4,5-tricarboxylic acid, 6-(5-oxo-hexanoate)] | < 100
C=C(CC[C@]12O[C@H](C(=O)O)[C@@](O)(C(=O)O)[C@](C(=O)O)(O1)[C@H](OC(=O)OC)[C@H]2O)[C@@H](OC(C)=O)[C@H](C)Cc1ccccc1 (relative stereo) [Example 56, [1S-[1α(4R*,5S*),3α,4β,5α,6α,7β]] 1-(4-Acetyloxy-5-methyl-3-methylene-6-phenylhexyl)-4,7-dihydroxy-6-[(methoxycarbonyl)oxy]-2,8-dioxabicyclo[3.2.1]octane-3,4,5-tricarboxylic acid] | < 100
C=C(CC[C@]12O[C@H](C(=O)O)[C@@](O)(C(=O)O)[C@](C(=O)O)(O1)[C@H](OC(=O)OCCCC)[C@H]2O)[C@@H](OC(C)=O)[C@H](C)Cc1ccccc1 (relative stereo) [Example 60, [1S-[1α(4R*,5S*)3α,4β,5α,6α,7β]] 1-(4-Acetyloxy-5-methyl-3-methylene-6-phenylhexyl)-6-[(butoxycarbonyl)oxy]-4,7-dihydroxy-2,8-dioxabicyclo[3.2.1]octane-3,4,5-tricarboxylic acid] | < 100
C=C(CC[C@]12O[C@H](C(=O)O)[C@@](O)(C(=O)O)[C@](C(=O)O)(O1)[C@H](OC(=O)NCC)[C@H]2O)[C@@H](OC(C)=O)[C@H](C)Cc1ccccc1 (relative stereo) [Example 66, [1S-[1α(4R*,5S*),3α,4β,5α,6α,7β]] 1-(4-Acetyloxy-5-methyl-3-methylene-6-phenylhexyl)-6-[[(ethylamino)carbonyl]oxy]4,7-dihydroxy-2,8-dioxabicyclo[3.2.1]octane-3,4,5-tricarboxylic acid] | < 100
C=C(CC[C@]12O[C@H](C(=O)O)[C@@](O)(C(=O)O)[C@](C(=O)O)(O1)[C@H](OC(=O)NC)[C@H]2O)[C@@H](OC(C)=O)[C@H](C)Cc1ccccc1 (relative stereo) [Example 67, [1S-[1α(4R*,5S*),3α,4β,5α,6α,7β]] 1-(4-Acetyloxy-5-methyl-3-methylene-6-phenylhexyl)-4,7-dihydroxy-6-[[(methylamino)carbonyl]oxy]-2,8-dioxabicyclo[3.2.1]octane-3,4,5-tricarboxylic acid] | < 100

Same assay, conditions: rat liver homogenate; [2-¹⁴C] farnesylpyrophosphate as substrate; 50% inhibition of [¹⁴C] squalene production in a 30 minute assay; read-out: IC₅₀

SMILES | IC50 [nM]
CCC(C)CC(C)/C=C/C(=O)OC1C(O)C2(CCC(C)C(=O)C(C)Cc3ccccc3)OC(C(=O)O)C(O)(C(=O)O)C1(C(=O)O)O2 (single isomer, unassigned) [Example 6, [1S-[1α[3R*(S*),5S*],3α,4β,5α,6α(2E,4R*,6R*),7β]] 1-(3,5-Dimethyl-4-oxo-6-phenylhexyl)-4,6,7-trihydroxy-2,8-dioxabicyclo[3.2.1]octane-3,4,5-tricarboxylic acid, 6-(4,6-dimethyl-2-octenoate), isomer 1 and isomer 2] | < 100
CCC(C)CC(C)C=CC(=O)OC1C(O)C2(CCC(C)C(O)C(C)Cc3ccccc3)OC(C(=O)O)C(O)(C(=O)O)C1(C(=O)O)O2 (single isomer, unassigned) [Example 7, [1S-[1α[3R*(S*),4R*,5S*],3α,4β,5α,6α(2E,4R*,6R*),7β]] and [1S-[1α[3R*(S*),4S*,5S*],3α,4β,5α,6α(2E,4R*,6R*),7β]] 1-(4-Hydroxy-3,5-dimethyl-6-phenylhexyl)-4,6,7-trihydroxy-2,8-dioxabicyclo[3.2.1]octane-3,4,5-tricarboxylic acid, 6-(4,6-dimethyl-2-octenoate), isomer 1 and isomer 2] | < 100
